Measurements reported in US10487094B1, “Bergenin thiodipropionic acid ester with antioxidant activity and a method of improving the antioxidant property of ganoderma lucidum spore oil using the same” (SHAANXI UNIVERSITY OF SCIENCE AND TECHNOLOGY, priority 2018, dated 2019).

Legend:
[1] = DPPH radical scavenging activity of sample and control solutions; assay type: biochemical; conditions: for Scavenging activity: 0.2 mmol/L DPPH, 30 min, 517 nm, n = 3
From the text: In the DPPH molecule, due to the presence of multiple electron-withdrawing —NO2 and large π bonds of the benzene ring, nitrogen free radical is stabilized. Its methanol solution is purple and has a maximum absorption peak at 517 nm. After the addition of an antioxidant, DPPH captures an electron to be paired with the free electron, and the purple fades and turns into a yellow substance. The absorption at 517 nm disappears, and the degree of fading is quantitatively related to the number of electrons it captures. Based on this principle, a spectrophotometer is used to detect the change of the absorbance of the DPPH radical and the sample solution, and the ability of the sample to provide hydrogen atoms and scavenge free radicals can be measured.
Preparation of DPPH Solution: Measuring Exact Amount of 1,1-diphenyl-2-picryl hydrazyl (DPPH) and dissolving in methanol to prepare a 0.2 mmol/L DPPH Solution, Stored at 0° C. in Dark
Preparation of sample solutions: Vitamin C (positive control), bergenin thiodipripionic acid ester (sample), bergenin (control), thiodipropionic acid (control), mixture of bergenin and thiodipropionic acid (control). The sample solution was serially diluted with acetonitrile, and four groups of controls were separately dissolved in a test tube with a certain amount of methanol to prepare the same concentration gradient as the sample. Four corresponding groups of control solutions were prepared in the same way.
2 mL of the sample solution (Table 1: B), 2 mL 0.2 mmol/L DPPH solution was added, the mixture was mixed and reacted at room temperature in dark for 30 minutes, and methanol was then added to adjust final volume. The absorbance Ai was measured at 517 nm. 2 mL control solution and 2 mL methanol were mixed, and the absorbance Aj was measured. 2 mL DPPH solution and 2 mL methanol were mixed, and the absorbance A0 was measured.
2 mL of the control solutions (Table 1: C, D, E), 2 mL 0.2 mmol/L DPPH solution was added, the mixture was mixed and reacted at room temperature in dark for 30 minutes, and methanol was then added to adjust final volume. The absorbance Ai was measured at 517 nm. 2 mL control solution and 2 mL methanol were mixed, and the absorbance Aj was measured. 2 mL DPPH solution and 2 mL methanol were mixed, and the absorbance A0 was measured. The scavenging activity of the sample solution and control solutions is calculated according to the following calculation formula. Scavenging activity (%)=[1−(Ai−Aj)/Ao]*100%

[2] = DPPH radical scavenging activity of Ganoderma lucidum spore oil with and without bergenin thiodipripionic acid ester; assay type: biochemical; conditions: added at 0.2%, 0.4%, 0.6%

| Compound | Scavenging activity ([1]; 0.04 mg/ml) | Scavenging activity ([1]; 0.08 mg/ml) | Scavenging activity ([1]; 0.16 mg/ml) | Scavenging activity ([1]; 0.83 mg/ml) | Scavenging activity ([1]; 1.66 mg/ml) | Scavenging activity ([1]; 8.28 mg/ml) | Scavenging activity ([1]; 16.56 mg/ml) | Scavenging activity ([1]; 24.84 mg/ml) | Scavenging activity ([1]; 33.12 mg/ml) | scavenging ability compared with bergenin (C), thiodipropionic acid (D) and their 2:1 mixture (E) ([1]; at the same concentration) | effect on antioxidant capacity of Ganoderma lucidum spore oil [2] |
| --- | --- | --- | --- | --- | --- | --- | --- | --- | --- | --- | --- |
| COc1c(O)cc2c(c1O)C1OC(COC(=O)CCSCCC(=O)OCC3OC4c5c(cc(O)c(OC)c5O)C(=O)OC4C(O)C3O)C(O)C(O)C1OC2=O (centres unmarked) [B, bis((3,4,8,10-tetrahydroxy-9-methoxy-6-oxo-2,3,4,4a,6,10b-hexahydropyrano[3,2-c]isochromen-2-yl)methyl) 3,3′-thiodipropionate] | 28.01% | 37.78% | 51.33% | 60.22% | 76.33% | 82.56% | 95.67% | 96.22% | 96.22% | significantly better | improves the antioxidant capacity of Ganoderma lucidum spore oil |
| COc1c(O)cc2c(c1O)[C@@H]1O[C@H](CO)[C@@H](O)[C@H](O)[C@H]1OC2=O [C, Bergenin] | 8.63% | 12.25% | 19.80% | 25.59% | 41.86% | 59.12% | 94.78% | 94.87% | 95.18% | – | – |
| O=C(O)CCSCCC(=O)O [D, Thiodipropionic acid] | 1.96% | 8.73% | 9.07% | 9.18% | 9.41% | 10.56% | 11.83% | 13.09% | 14.47% | – | – |
| O=C1O[C@H]([C@@H](O)CO)C(O)=C1O [Vc, Vitamin C] | 94.90% | 94.90% | 95.03% | 95.03% | 98.67% | 98.92% | 99.00% | 99.00% | 99.00% | – | – |
